Measured values: patent US20030161893A1, “PTPase inhibitors and methods of using the same” (priority 2001, published 2003)
Several values for one entry are separate records, joined by “and”; a condition that tells them apart may be missing. Identical values can stand only once.

Legend:
[1] = tested on: HL-60 cells; assay: HL-60 cell differentiation (NBT reduction); type: cell-based, human; conditions: day 6; sodium stibogluconate 400 μg/ml, GM-CSF 25 ng/ml, ATRA
Procedure: (§1) Differentiation of AML cell lines was assessed by their ability to produce superoxide as measured by reduction of NBT to formazan and by analysis of expression of CD11b surface marker by flow cytometry. For NBT reduction, each cell suspension was mixed with an equal volume of solution containing 1 mg/ml of NBT (Sigma) and 2.5 μg/ml of TPA for 30 minutes at 37° C. After incubation, cells containing the purple formazan deposits and cells devoid of NBT-reducing activity (white cells) in each sample were determined by counting 200 cells under microscope. Data is expressed as a percentage based on the following ratio: purple cells/purple+white cells. For analysis of cell surface antigens, cells were exposed to phycoerythrin (PE)-conjugated murine anti-human CD11b (DAKO Corp., Carpinteria, Calif.). Analysis of fluorescence was performed on a FACScan flow cytometer (Beckton Dickinson, Mountain View, Calif.).

[2] = tested on: NB4 cells; assay: NB4 cell growth (MTT), cell cycle and Annexin V; type: cell-based, human; conditions: 3 days; sodium stibogluconate 250 μg/ml, ATRA 1 μM
Procedure: The NB4 cell line (Lanotte et al., Blood 77, 1080 (1991)) was a gift from Dr. Dan Lindner of the Cleveland Clinic Foundation. […] and U937 cell lines were purchased from American Type Culture Collection (Rockville, Md.). These human […] cell lines were maintained in RPMI 1640 medium supplemented with 10% fetal calf serum (FCS). For cell proliferation assays, cells were cultured at 37° C. in 10% FCS medium containing various amounts of sodium stibogluconate for 6 days. The cell numbers in the cultures were determined by an MTT assay as described previously in Mosmann, J. Imunol. Methods 65, 55 (1983).
The cell cycle was analyzed by flow cytometry after 3 days of culture of NB4 cells in the absence or presence of sodium stibogluconate (250 μg/ml) or ATRA (1 μM). Briefly, the cells were fixed in cold ethanol and incubated for 30 minutes at 4° C. in the dark with a solution of […] propidium iodide, 1 mg/ml RNase and 0.1% NP-40. Analysis was performed immediately after staining using the CELLFIT program (Becton Dickinson, Mountain View, Calif.).
Annexin V staining of exposed membrane phospholipid phosphatidylserine (PS) was done using the Annexin V assay kit (Pharmingen, San Diego, Calif.). Briefly, NB4 cells were cultured in the 10% FCS RPMI 1640 medium in the absence or presence of sodium stibogluconate (250 μg/ml) or ATRA (1 μM) for 3 days. Cells were then washed in PBS twice and stained in binding buffer (10 mM Hepes, pH 7.4; 140 mM NaCl; 2.5 mM CaCl2) containing Annexin V-FITC and propidium iodide for 15 min. The reaction was stopped by adding 10 volumes of binding buffer and analyzed by FACS (Becton Dickinson Facsvantage).

[3] = tested on: U937 cells; assay: U937 cell differentiation (NBT reduction); type: cell-based, human; conditions: day 6; sodium stibogluconate 400 μg/ml, GM-CSF 25 ng/ml, ATRA
Procedure: as §1

[4] = biological target: T1, PRL-3 (Homo sapiens, UniProt O75365); assay: In vitro PTPase assay, recombinant PRL-3; type: biochemical; conditions: DiFMUP, comparable conditions
T1 construct: cDNAs of human PRL-1, PRL-2 and PRL-3 coding region were derived by RT-PCR from H9 cells; made in house; host or cells: DH5a bacteria (E. coli)
T1 sequence (O75365 whole entry): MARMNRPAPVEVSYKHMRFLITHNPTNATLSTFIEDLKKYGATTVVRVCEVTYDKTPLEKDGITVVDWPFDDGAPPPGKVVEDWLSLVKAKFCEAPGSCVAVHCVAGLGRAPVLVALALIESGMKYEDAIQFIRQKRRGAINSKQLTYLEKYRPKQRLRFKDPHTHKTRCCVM
Excerpt: Sodium stibogluconate, suramin, sodium orth ovanadate and GST fusion protein of SHP-1 have been described previously (Pathak et al., J. Imumol. 167, 3391 (2001)). Meglumine antimonate was obtained from Aventis. cDNAs of human PRL-1, PRL-2 and PRL-3 coding region were derived by RT-PCR from H9 cells (Safai, et al., Lancet 1, 1438 (1984)) and inserted in frame into the pGEX vector. cDNA of PRL-1R86 was generated by recombinant DNA technique using PRL-1 cDNA as template following established procedures (Jiao, et al., Mol. Cell. Biol. 16, 6985 (1996)). GST fusion proteins of the PRL phosphatases were prepared from DH5a bacteria transformed with the pGEX fusion protein constructs as described previously (Yi, et al., Mol. Cell. Biol. 12, 836 (1992)). cDNAs encoding the PRLs tagged at the N-termini with the Flag epitope (Castrucci, et al., J. Virol. 66, 4647 (1992)) were generated via recombinant DNA technique, sequenced to confirm their identities and cloned into the pBabepuro vector (Yang, et al., Blood 91, 3746 (1998)). Anti-Flag monoclonal antibody (M2, Sigma) was purchased from a commercial source. A synthetic phosphotyrosine peptide (Arg-Arg-Leu-Ile-Glu-Asp-Ala-Gle-Tyr-Ala-Ala-Arg-Gly (SEQ ID NO: 3), wherein the tyrosine is phosphorylated; UBI) and DiFMUP (6, 8-difluoro-4-methylumbelliferyl phosphate, Molecular Probes) were purchased as substrates for PTPase assays.
In vitro PTPase assays were used to determine the effects of compounds on recombinant PTPases, following established procedures using a synthetic phosphotyrosine peptide or DiFMUP as the substrate (Pathak et al., J. Imumol. 167, 3391 (2001)). Briefly, individual PTPases (0.1 μg/reaction) in 50 μL of PTPase buffer (50 mM Tris, pH 7.4) were incubated at 22° C. for 10 minutes or as indicated in the absence or presence of inhibitory compounds. Substrates (0.2 mM phosphotyrosine peptide) were then added and allowed to react at 22° C. for 18 hrs. PTPase activity of individual reactions was measured by adding 100 μL of malachite green solution (UBI) and then quantifying the amounts of free phosphate cleaved by the PTPase from the peptide substrate by spectrometry (OD660 nm). PTPase assays using DiFMUP as a substrate were conducted following a previously described procedure (Matter, et al., Biochem. Biophys. Res. Comm. 283, 1061 (2001)). Relative PTPase activities were calculated based on the formula: (PTPase activity in the presence of an inhibitory compound/PTPase activity in the absence of the compound)×100%. To assess the reversibility of PTPase inhibition, GST fusion proteins of the PTPases bound on glutathione beads (Pharmacia) were pre-incubated with cold Tris buffer (50 mM Tris, pH 7.0) or Tris buffer containing the inhibitor at 4° C. for 30 minutes. The beads were then washed three times in cold Tris buffer or not washed prior to subjecting to in vitro PTPase assays.

[5] = biological target: T2, SHP-1 (Mus musculus, UniProt P29351); assay: In vitro PTPase assay, GST/SHP-1 fusion protein; type: biochemical
T2 construct: made in house
T2 sequence (P29351 whole entry, the tested form may be a part): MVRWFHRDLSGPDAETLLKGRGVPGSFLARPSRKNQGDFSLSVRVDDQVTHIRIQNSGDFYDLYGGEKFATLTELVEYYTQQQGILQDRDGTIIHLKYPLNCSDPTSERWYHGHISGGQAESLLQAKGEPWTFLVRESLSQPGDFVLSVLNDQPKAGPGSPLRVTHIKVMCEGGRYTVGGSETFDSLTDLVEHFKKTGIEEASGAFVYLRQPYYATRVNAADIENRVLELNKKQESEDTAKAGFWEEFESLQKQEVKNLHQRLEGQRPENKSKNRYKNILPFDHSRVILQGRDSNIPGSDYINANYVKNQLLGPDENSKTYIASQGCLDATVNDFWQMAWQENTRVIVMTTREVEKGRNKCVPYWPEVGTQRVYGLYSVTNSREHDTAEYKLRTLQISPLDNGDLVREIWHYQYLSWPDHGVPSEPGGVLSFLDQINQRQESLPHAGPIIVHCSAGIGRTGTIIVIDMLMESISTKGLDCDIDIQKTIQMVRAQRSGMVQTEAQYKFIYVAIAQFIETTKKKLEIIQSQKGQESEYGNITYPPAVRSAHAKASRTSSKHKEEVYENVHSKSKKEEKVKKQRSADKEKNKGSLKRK
Procedure: In vitro PTPase activities were measured using the commercial protein tyrosine phosphatase assay kit (Upstate Biotechnology, Inc. (“UBI”)) following established procedure known to one of skill in the art. […] 100 μl of Malachite Green solution was added and incubated for 5 minutes, and the absorbance at 660 nm was measured after 5 minutes.
The beads were then either subjected to in vitro PTPase assays or washed 3 times in Tris buffer then subjected to in vitro PTPase assays.
Briefly, individual PTPases (0.1 μg/reaction) in 50 μL of PTPase buffer (50 mM Tris, pH 7.4) were incubated at 22° C. for 10 minutes or as indicated in the absence or presence of inhibitory compounds. […] […] […] Relative PTPase activities were calculated based on the formula: (PTPase activity in the presence of an inhibitory compound/PTPase activity in the absence of the compound)×100%. To assess the reversibility of PTPase inhibition, GST fusion proteins of the PTPases bound on glutathione beads (Pharmacia) were pre-incubated with cold Tris buffer (50 mM Tris, pH 7.0) or Tris buffer containing the inhibitor at 4° C. for 30 minutes. The beads were then washed three times in cold Tris buffer or not washed prior to subjecting to in vitro PTPase assays.

[6] = biological target: T3, MKP1 (Homo sapiens, UniProt P28562); assay: In vitro PTPase assay, GST/MKP1 fusion protein; type: biochemical
T3 construct: a pGEX construct containing the coding region of MKP1 cDNA derived by RT-PCR; made in house; host or cells: DH5a bacteria (E. coli)
T3 sequence (P28562 1-367): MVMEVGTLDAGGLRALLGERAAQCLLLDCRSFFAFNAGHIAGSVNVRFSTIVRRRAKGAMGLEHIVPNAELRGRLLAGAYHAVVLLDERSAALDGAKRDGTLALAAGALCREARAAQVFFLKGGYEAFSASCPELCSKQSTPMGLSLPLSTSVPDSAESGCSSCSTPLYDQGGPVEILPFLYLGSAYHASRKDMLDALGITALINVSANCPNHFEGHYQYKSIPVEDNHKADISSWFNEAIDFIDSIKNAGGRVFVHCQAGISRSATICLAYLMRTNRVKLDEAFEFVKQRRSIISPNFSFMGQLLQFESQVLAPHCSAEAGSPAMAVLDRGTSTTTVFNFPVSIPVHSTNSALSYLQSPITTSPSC

[7] = tested on: GSTm8; assay: In vitro PTPase assay, GSTm8; type: biochemical; conditions: 3-4 μg/ml or 10-100 μg/ml
[8] = tested on: Jak2/Stat5; assay: IL-3-induced Jak2/Stat5 tyrosine phosphorylation in Baf3 cells; type: cell-based, murine
Procedure: For induction of cellular protein phosphorylation by sodium stibogluconate or pervanadate, Baf3 cells were incubated in 0.1% FCS-RPMI 1640 medium at 37° C. for 16 hours. The cells were then washed twice in RPMI 1640 medium and incubated with sodium stibogluconate or pervanandate (0.1 mM) for various times prior to termination by lysing cells in cold lysis buffer (50 mM Tris, pH 7.4; 150 mM NaCl; 0.2 mM Na3VO4; 20 mm NaF; 1% Nonidet P-40; 2 mM PMSF; 20 μg/ml of Aprotinin and 1 mM of sodium molybdic acid). To determine the effect of sodium stibogluconate or potassium antimonyl tartrate on IL-3-induced Jak/Stat phosphorylation, Baf3 cells were deprived of the growth factor for 16 hours in 0.1% FCS RPMI 1640 medium and then incubated with or without sodium stibogluconate or potassium antimonyl tartrate for 10 minutes. IL-3 was next added to the cell suspension and incubated for various times. The Cells were then harvested and lysed in cold lysis buffer at 4° C. for 45 minutes. Total cell lysates (TCL) were separated in SDS-PAGE gels, blotted onto nitrocellulose membrane (Schleicher & Schuell), probed with specific antibodies and detected using an enhanced chemiluminescence kit (ECL, Amersham, Arlington Heights, Ill.).

[9] = biological target: T4, PTP1B (Homo sapiens, UniProt P18031); assay: In vitro PTPase assay, GST/PTP1B fusion protein; type: biochemical; conditions: 1-1,000 μg/ml
T4 construct: purchased Upstate Biotechnology Inc. (Lake Placid, N.Y.)
T4 sequence (P18031 whole entry, species assumed, the tested form may be a part): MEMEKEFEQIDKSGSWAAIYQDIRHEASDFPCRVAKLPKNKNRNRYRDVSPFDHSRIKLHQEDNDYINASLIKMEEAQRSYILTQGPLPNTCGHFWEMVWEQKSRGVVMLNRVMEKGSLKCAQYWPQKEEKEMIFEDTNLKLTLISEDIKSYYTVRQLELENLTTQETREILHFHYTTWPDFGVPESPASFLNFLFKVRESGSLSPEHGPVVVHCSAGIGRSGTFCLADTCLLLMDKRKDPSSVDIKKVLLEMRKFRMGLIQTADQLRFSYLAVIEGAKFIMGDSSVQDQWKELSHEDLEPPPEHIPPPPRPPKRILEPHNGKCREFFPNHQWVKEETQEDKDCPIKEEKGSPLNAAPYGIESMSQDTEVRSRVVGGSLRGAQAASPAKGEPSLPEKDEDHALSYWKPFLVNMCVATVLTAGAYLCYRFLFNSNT
Procedure: In vitro PTPase activities were measured using the commercial protein tyrosine phosphatase assay kit (Upstate Biotechnology, Inc. (“UBI”)) following established procedure known to one of skill in the art. This assay measures the in vitro dephosphorylation of a synthetic phosphotyrosine peptide of the sequence Arg-Arg-Leu-Ile-Glu-Asp-Ala-Gle-Tyr-Ala-Ala-Arg-Gly, wherein the tyrosine is phosphorylated (SEQ ID NO: 3). Briefly, 0.01 μg of GST/PTPase fusion proteins was incubated in 50 μl of Tris buffer (10 mM Tris, pH 7.4) containing different concentrations of inhibitors or chemicals (0-1,000 μg/ml) at 22° C. for 10 minutes, followed by addition of 0.2 mM of the phosphotyrosine peptide and incubation at 22° C. for 18 hours. 100 μl of Malachite Green solution was added and incubated for 5 minutes, and the absorbance at 660 nm was measured after 5 minutes.

[10] = tested on: Baf3 cells; assay: Baf3 cell proliferation assay; type: cell-based, murine
Procedure: The murine hematopoietic cell line Baf3 was maintained in RPMI 1640 medium supplemented with 10% fetal calf serum (FCS) and murine IL-3 (20 units/ml) as described previously in Damen et al., J. Biol. Chem. 270, 23402 (1995). Human myeloid cell line TF-1 was maintained in RPMI 1640 supplemented with 10% FCS and 40 ng/ml of recombinant human GM-CSF as described previously in Thomassen et al., Clin. Immunol. 95, 85 (2000). For cell proliferation assays, cells were washed in 10% FCS medium twice, resuspended in 10% FCS medium, incubated at 37° C. for 16 hours, and then cultured at 37° C. in 10% FCS medium containing various amounts of cytokines, sodium stibogluconate, or potassium antimonyl tartrate for 3-6 days as indicated. The cell numbers in proliferation assays were determined by an MTT assay or by microscopic cell counting as indicated.

CC1=C(/C=C/C(C)=C/C=C/C(C)=C/C(=O)O)C(C)(C)CCC1 [ATRA, All-trans-retinoic acid]
NBT-positive (differentiated) HL-60 cells [1]: 90%
cell cycle of NB4 cells [2]: arrested at GI phase
NBT-positive (differentiated) U937 cells [3]: 72% and 73%

Cc1ccc(C(=O)Nc2ccc(S(=O)(=O)O)c3cc(S(=O)(=O)O)cc(S(=O)(=O)O)c23)cc1NC(=O)c1cccc(NC(=O)Nc2cccc(C(=O)Nc3cc(C(=O)Nc4ccc(S(=O)(=O)O)c5cc(S(=O)(=O)O)cc(S(=O)(=O)O)c45)ccc3C)c2)c1 [Suramin]
inhibition of PRL-3 with DiFMUP substrate [4]: less effective
inhibition of SHP-1 compared with sodium stibogluconate ([5]; comparable conditions): less effective
reversibility of SHP-1 inhibition by washing ([5]; pre-incubated at 4° C. 30 minutes, beads washed 3 times): almost completely removed by the washing process

c1ccc([C@H]2CN3CCSC3=N2)cc1 [levamisole]
inhibition of MKP1 [6]: substantial inhibition
inhibitory activity against SHP-1 ([5]; 3-4 μg/ml or 10-100 μg/ml): no obvious inhibitory activity
inhibitory activity against GSTm8 [7]: no obvious inhibitory activity

O.O.O.O=C([O-])[C@H]([O-])[C@@H]([O-])C(=O)[O-].O=C([O-])[C@H]([O-])[C@@H]([O-])C(=O)[O-].[K+].[K+].[Sb+3].[Sb+3] [potassium antimonyl tartrate]
IL-3-induced Stat5 phosphorylation [8]: failed to enhance
inhibition of PTP1B [9]: no detectable inhibition
inhibition of SHP-1 ([5]; 1-1,000 μg/ml): no detectable inhibition
toxicity against Baf3 cells [10]: marked toxicity
IL-3-induced proliferation of Baf3 cells ([10]; IL-3 10 units/ml, three days): failed to enhance

[Na+].[Na+].[Na+].[O]=[V]([O-])([O-])[O-] [sodium orthovanadate]
inhibition of PRL-3 with DiFMUP substrate [4]: less effective
